Experimental data taken from ChEMBL document CHEMBL1909569 (Bioorg Med Chem Lett, 2011).
In brackets after ≈: the same amount, converted by molar mass.

How the values were obtained:
Format in all cases: functional
[1] = test system: Mycobacterium tuberculosis; assay: Antimicrobial activity against replicating Mycobacterium tuberculosis after 8 days by micro plate alamar blue assay; details: 192 h
[2] = test system: Mycobacterium tuberculosis; assay: Antimicrobial activity against non-replicating Mycobacterium tuberculosis after 11 days by luminescence based low oxygen recovery assay; details: 264 h
Escherichia coli [3] = assay: Antimicrobial activity against wild type Escherichia coli TG2 after 16 to 20 hrs
Escherichia coli [4] = assay: Antimicrobial activity against wild type Escherichia coli DH5[alpha] after 16 to 20 hrs
Escherichia coli [5] = assay: Antimicrobial activity against Escherichia coli EC2880 mutant after 16 to 20 hrs

Structure (SMILES)	MIC90 [1] [µM]	MIC90 [2] [µM]	MIC90 (Escherichia coli [3]) [µM]	MIC90 (Escherichia coli [4]) [µM]	MIC90 (Escherichia coli [5]) [µM]
CNc1c(C)c2c3c4c1C(=O)C(=CC4=O)NC(=O)/C(C)=C\C=C\[C@H](C)[C@H](O)[C@@H](C)[C@@H](O)[C@@H](C)[C@H](OC(C)=O)[C@H](C)[C@@H](OC)/C=C/O[C@@](C)(O2)C3=O	> 5.6	20.6 (≈ 14.6 µg/mL)	–	–	–
CCNc1c(C)c2c3c4c1C(=O)C(=C(/C=N/N1CCN(C)CC1)C4=O)NC(=O)/C(C)=C\C=C\[C@H](C)[C@H](O)[C@@H](C)[C@@H](O)[C@@H](C)[C@H](OC(C)=O)[C@H](C)[C@@H](OC)/C=C/O[C@@](C)(O2)C3=O	> 4.7	> 18.9	–	–	–
CO[C@H]1/C=C/O[C@@]2(C)Oc3c(C)c(NCCO)c4c(c3C2=O)C(=O)C(/C=N/N2CCN(C)CC2)=C(NC(=O)/C(C)=C\C=C\[C@H](C)[C@H](O)[C@@H](C)[C@@H](O)[C@@H](C)[C@H](OC(C)=O)[C@@H]1C)C4=O	> 4.6	> 18.5	–	–	–
COc1c(N2C[C@@H]3CCCN[C@@H]3C2)c(F)cc2c(=O)c(C(=O)O)cn(C3CC3)c12 [MOXIFLOXACIN]	0.64 (≈ 0.257 µg/mL)	4.3 (≈ 1.73 µg/mL)	–	–	–
NNC(=O)c1ccncc1 [ISONIAZID]	0.39 (≈ 0.0535 µg/mL)	> 128	–	–	–
C/C=C/Nc1c(C)c2c3c4c(O)c(/C=N/N5CCN(C)CC5)c(c(O)c14)NC(=O)/C(C)=C\C=C\[C@H](C)[C@H](O)[C@@H](C)[C@@H](O)[C@@H](C)[C@H](OC(C)=O)[C@H](C)[C@@H](OC)/C=C/O[C@@](C)(O2)C3=O	> 4.6	> 18.6	–	–	–
CONc1c(C)c2c3c4c1C(=O)C(=CC4=O)NC(=O)/C(C)=C\C=C\[C@H](C)[C@H](O)[C@@H](C)[C@@H](O)[C@@H](C)[C@H](OC(C)=O)[C@H](C)[C@@H](OC)/C=C/O[C@@](C)(O2)C3=O	3.8 (≈ 2.75 µg/mL)	12.5 (≈ 9.06 µg/mL)	–	–	–
CO[C@H]1/C=C/O[C@@]2(C)Oc3c(C)c(NCc4ccccc4)c4c(c3C2=O)C(=O)C(/C=N/N2CCN(C)CC2)=C(NC(=O)/C(C)=C\C=C\[C@H](C)[C@H](O)[C@@H](C)[C@@H](O)[C@@H](C)[C@H](OC(C)=O)[C@@H]1C)C4=O	> 4.4	> 17.6	–	–	–
CO[C@H]1/C=C/O[C@@]2(C)Oc3c(C)c(NCCO)c4c(c3C2=O)C(=O)C=C(NC(=O)/C(C)=C\C=C\[C@H](C)[C@H](O)[C@@H](C)[C@@H](O)[C@@H](C)[C@H](OC(C)=O)[C@@H]1C)C4=O	5.32 (≈ 3.93 µg/mL)	> 21.7	–	–	–
C/C=C/Nc1c(C)c2c3c4c1C(=O)C(=C(/C=N/N1CCN(C)CC1)C4=O)NC(=O)/C(C)=C\C=C\[C@H](C)[C@H](O)[C@@H](C)[C@@H](O)[C@@H](C)[C@H](OC(C)=O)[C@H](C)[C@@H](OC)/C=C/O[C@@](C)(O2)C3=O	> 4.7	> 18.6	–	–	–
CO[C@H]1/C=C/O[C@@]2(C)Oc3c(c4c5c(nn(CCO)c5c3C)C(=CC4=O)NC(=O)/C(C)=C\C=C\[C@H](C)[C@H](O)[C@@H](C)[C@@H](O)[C@@H](C)[C@H](OC(C)=O)[C@@H]1C)C2=O	> 5.4	> 21.7	–	–	–
CO[C@H]1/C=C/O[C@@]2(C)Oc3c(C)c(NCc4ccccc4)c4c(O)c(c(/C=N/N5CCN(C)CC5)c(O)c4c3C2=O)NC(=O)/C(C)=C\C=C\[C@H](C)[C@H](O)[C@@H](C)[C@@H](O)[C@@H](C)[C@H](OC(C)=O)[C@@H]1C	> 4.4	> 17.5	–	–	–
CO[C@H]1/C=C/O[C@@]2(C)Oc3c(C)c(NCc4ccccc4)c4c(c3C2=O)C(=O)C=C(NC(=O)/C(C)=C\C=C\[C@H](C)[C@H](O)[C@@H](C)[C@@H](O)[C@@H](C)[C@H](OC(C)=O)[C@@H]1C)C4=O	2.4 (≈ 1.88 µg/mL)	> 20.4	–	–	–
CO[C@H]1/C=C/O[C@@]2(C)Oc3c(C)c(OS(=O)(=O)c4ccc(C)cc4)c4c(c3C2=O)C(=O)C(/C=N/N2CCN(C)CC2)=C(NC(=O)/C(C)=C\C=C\[C@H](C)[C@H](O)[C@@H](C)[C@@H](O)[C@@H](C)[C@H](OC(C)=O)[C@@H]1C)C4=O	–	–	> 100	> 100	–
CCNc1c(C)c2c3c4c1C(=O)C(=CC4=O)NC(=O)/C(C)=C\C=C\[C@H](C)[C@H](O)[C@@H](C)[C@@H](O)[C@@H](C)[C@H](OC(C)=O)[C@H](C)[C@@H](OC)/C=C/O[C@@](C)(O2)C3=O	5.5 (≈ 3.98 µg/mL)	21.4 (≈ 15.5 µg/mL)	–	–	–
C/C=C/Nc1c(C)c2c3c4c1C(=O)C(=CC4=O)NC(=O)/C(C)=C\C=C\[C@H](C)[C@H](O)[C@@H](C)[C@@H](O)[C@@H](C)[C@H](OC(C)=O)[C@H](C)[C@@H](OC)/C=C/O[C@@](C)(O2)C3=O	5.2 (≈ 3.82 µg/mL)	18.3 (≈ 13.4 µg/mL)	–	–	–
CO[C@H]1/C=C/O[C@@]2(C)Oc3c(C)c(NC4CCCCCC4)c4c(O)c(c(/C=N/N5CCN(C)CC5)c(O)c4c3C2=O)NC(=O)/C(C)=C\C=C\[C@H](C)[C@H](O)[C@@H](C)[C@@H](O)[C@@H](C)[C@H](OC(C)=O)[C@@H]1C	3.8 (≈ 3.49 µg/mL)	> 17.4	–	–	–
CO[C@H]1/C=C/O[C@@]2(C)Oc3c(C)c(NC4CCCCCC4)c4c(c3C2=O)C(=O)C(/C=N/N2CCN(C)CC2)=C(NC(=O)/C(C)=C\C=C\[C@H](C)[C@H](O)[C@@H](C)[C@@H](O)[C@@H](C)[C@H](OC(C)=O)[C@@H]1C)C4=O	3.9 (≈ 3.57 µg/mL)	13.7 (≈ 12.6 µg/mL)	–	–	–
CO[C@H]1/C=C/O[C@@]2(C)Oc3c(C)c(NCCO)c4c(O)c(c(/C=N/N5CCN(C)CC5)c(O)c4c3C2=O)NC(=O)/C(C)=C\C=C\[C@H](C)[C@H](O)[C@@H](C)[C@@H](O)[C@@H](C)[C@H](OC(C)=O)[C@@H]1C	> 4.6	> 18.5	–	–	–
CO[C@H]1/C=C/O[C@@]2(C)Oc3c(C)c(O)c4c(O)c(c(/C=N/N5CCN(C)CC5)c(O)c4c3C2=O)NC(=O)/C(C)=C\C=C\[C@H](C)[C@H](O)[C@@H](C)[C@@H](O)[C@@H](C)[C@H](OC(C)=O)[C@@H]1C [RIFAMPIN]	0.13 (≈ 0.107 µg/mL)	1.9 (≈ 1.56 µg/mL)	12.5 (≈ 10.3 µg/mL)	12.5 (≈ 10.3 µg/mL)	0.1 (≈ 0.0823 µg/mL)
CCNc1c(C)c2c3c4c(O)c(/C=N/N5CCN(C)CC5)c(c(O)c14)NC(=O)/C(C)=C\C=C\[C@H](C)[C@H](O)[C@@H](C)[C@@H](O)[C@@H](C)[C@H](OC(C)=O)[C@H](C)[C@@H](OC)/C=C/O[C@@](C)(O2)C3=O	> 4.7	> 18.8	–	–	–
O=[N+]([O-])c1cn2c(n1)OC[C@@H](OCc1ccc(OC(F)(F)F)cc1)C2 [PRETOMANID]	0.66 (≈ 0.237 µg/mL)	2.3 (≈ 0.826 µg/mL)	–	–	–
